Patent publication US8324272B2 (XenoPort, Inc., priority 2006, dated 2012)
Several values for one entry are separate records, joined by “and”; a condition that tells them apart may be missing. Equal entries are not always repeated. Values belong to the molecule of their own block, whether it stands above or below them.

Assays:
[1] = Hygroscopicity of crystalline hydrochloride (9) crystallized from various solvents; type: physicochemical
Procedure: Crystallization of (1R,2R)-1-methyl-2-(2-methylpropanoyloxy)propyl (2S)-2-amino-3-(3,4-dihydroxyphenyl)propanoate hydrochloride (9) was crystallized using the solvents listed in Table 1 on an 80 mg scale.

[2] = oral administration; cited from earlier work

melting point: 181.2 to 186 °C
SMILES: CC(C)C(=O)O[C@H](C)[C@@H](C)OC(=O)[C@@H](N)Cc1ccc(O)c(O)c1.CS(=O)(=O)O

Hygroscopicity ([1]; crystallized from acetonitrile): None
Hygroscopicity ([1]; crystallized from isopropanol-ethyl acetate): None
Hygroscopicity ([1]; crystallized from isopropanol-methyl tert-butyl ether): None
Hygroscopicity ([1]; crystallized from tetrahydrofuran-diisopropyl ether): None
Hygroscopicity ([1]; crystallized from tetrahydrofuran-hexane): None
Hygroscopicity ([1]; crystallized from tetrahydrofuran-methyl tert-butyl ether): None
Hygroscopicity ([1]; crystallized from water-acetonitrile): None
Hygroscopicity ([1]; crystallized from water-methyl tert-butyl ether): None
melting point: 164.7 to 166.2 °C and 164.9 to 166.4 °C
SMILES: CC(C)C(=O)O[C@H](C)[C@@H](C)OC(=O)[C@@H](N)Cc1ccc(O)c(O)c1.Cl [Compound 9, (1R,2R)-1-Methyl-2-(2-methylpropanoyloxy)propyl (2S)-2-Amino-3-(3,4-dihydroxyphenyl)propanoate Hydrochloride]

melting point: 94.4 °C (dec.)
SMILES: CS(=O)(=O)O.C[C@@H](OC(=O)c1ccccc1)[C@@H](C)OC(=O)[C@@H](N)Cc1ccc(O)c(O)c1 [Compound 11, (1R,2R)-1-Methyl-2-phenylcarbonyloxypropyl (2S)-2-Amino-3-(3,4-dihydroxyphenyl)propanoate Mesylate]

SMILES: CC(C)(C)C(=O)Oc1ccc(C[C@H](N)C(=O)O)cc1O [NB-355]
duration of circulating levodopa [2]: prolonged
plasma concentrations of levodopa [2]: low
